“Also recorded” adds a separate entry of the source. Residues, ends and D or L forms follow the SMILES beside them.
Key:
Assay type in all cases: physicochemical
[1] = Stability of P0 gel in solution by MALDI-TOF mass spectrometry; settings: P0 in H2O pH 8.0, chloride salt 1.0 mM and trifluoroacetate salt 0.5 mM, ambient temperature, 2 weeks, MALDI-TOF/TOF MS
Procedure: The identity and purity of all peptides were verified by electrospray or matrix-assisted laser desorption/ionization time-of-flight (MALDI-TOF) mass spectrometry (Bryn Mawr College, PA, at the Chemical Center, Lund University, Lund, Sweden, or at the Laboratory for Biological Mass Spectrometry at Texas A&M University, College Station, TX). Mass spectra were typically acquired using an Autoflex Speed MALDI TOF/TOF mass spectrometer (Bruker Daltonics) in positive reflector mode. A 1 μL peptide sample was mixed with 0.5 μL matrix solution, consisting of 5 mg/ml α-cyano-4-hydroxy cinnamic acid, 80% acetonitrile, and 0.1% TFA, and added to a MALDI stainless steel plate. All spectra were externally calibrated using Peptide Calibration Standard II (Bruker Daltonics) containing 9 internal standard peptides. […]
All samples were prepared in nonstick Eppendorf tubes (Axygen, Inc.). […] The concentration of the peptide solutions was verified with the UV–vis absorbance peak at 280 nm using a molar absorptivity of 2560 M^–1 cm^–1 for all sequences (P0–P7). […]
Figure S16. P0 gel stability was evaluated by MALDI-TOF analysis. […] (A) A sample of P0 in H2O at pH 8.0, chloride salt (1.0 mM) and (B) trifluoroacetate salt (0.5 mM) were prepared for stability and analyzed by MALDI-TOF mass spectrometry. […]
degradation was observed over 2 weeks. […] The calculated mass for P0 [M+H]+ m/z = 1585.72. […]

[2] = Hydrogelation and gel appearance by visual inspection
Procedure: All FTIR measurements were collected on samples where a trifluoroacetate (TFA^–) to chloride ion exchange was performed to eliminate signals from the TFA^– carbonyl moiety in the amide I spectral region (Figure S1). FTIR spectra were collected for P0–P5 in D2O at six pD values (3.0, 5.0, 7.0, 8.0, 9.0, and 10.0) (Figures S2–S7). FTIR analysis for P6–P8 was performed at a pD of 8.0 (Figures S8–S10). The bulk of FTIR studies were performed at pD 8.0, as the optimum pH range for hydrogelation is 7–9 for both SgI38–48[28] and P0.
All samples were prepared in nonstick Eppendorf tubes (Axygen, Inc.). Prior to the final sample preparation (for all FTIR samples and when otherwise stated), the TFA counteranions present in the peptide sample after HPLC purification were exchanged for chloride using the following protocol: lyophilized peptide was dissolved in deionized D2O (1.0 mL). HCl was added at a molar ratio of 13.7:1 HCl:peptide. For the Phe^CN mutants, the sample was divided into two groups and lyophilized. One sample was then redissolved in H2O (to avoid obscuring the O–D stretches in the nitrile region) and the other in D2O (to avoid overlapping of the O-H bending vibrations in the amide I region) to a final concentration of 2.0 mM, unless otherwise specified. All other peptide samples were redissolved in D2O. The exchange of TFA^– to chloride may be verified by a lack of signal at 1672 cm^–1, seen in the IR spectrum for the deuterium-exchanged TFA salt of P3, where the carbonyl signal from TFA is well separated from the amide I carbonyl high frequency stretch at 1684 cm^–1 (Figure S1). On the day of the peptide sample preparation, D2O was placed in an Eppendorf tube, was then used as background when collecting data points (0 h, 48 h, 1 week, etc.), and was assumed to absorb the same amount of H2O over time as the peptide sample prepared on the same day. The concentration of the peptide solutions was verified with the UV–vis absorbance peak at 280 nm using a molar absorptivity of 2560 M^–1 cm^–1 for all sequences (P0–P7). The pH/pD of the samples was then corrected to 8.0 using small volumes of NaOH and HCl (or NaOD and DCl). After attaining the desired pH/pD, samples were incubated at ambient temperature (ca. 22 °C) and followed over 7 days (or as specified) to allow for hydrogelation.

[3] = SAXS/WAXS of fibrils, elliptical cylinder model fit; settings: SAXS, elliptical cylinder model fit, 2.0 mM, day 7 at 21 °C, pH 8.0
Procedure: Small- and wide-angle X-ray scattering (SAXS/WAXS) measurements were performed on a SAXSLabs Ganesha pinhole instrument (JJ X-ray System Aps) with an X-ray microsource (Xenocs) and a two-dimensional 300k Pilatus detector (Dectris Ltd., Switzerland). The wavelength, λ, used for all scattering experiments was 1.54 Å, and samples were measured at three sample-to-detector distances. All samples (200 μL) were loaded into a 1.5 mm diameter quartz capillary (Hilgenberg GmbH, Malsfeld, Germany), and the time-averaged scattering intensities were analyzed using a python code. The scattering intensity was corrected to an absolute scale by calibration against water. Supramolecular dimensions were extracted from SAXS data by using the SasView software and fitting the scattering curves to an elliptical-cylinder model (www.sasview.org).

Structure (SMILES): CC[C@H](C)[C@H](NC(=O)[C@H](CO)NC(=O)[C@H](Cc1ccccc1)NC(=O)[C@H](CO)NC(=O)CNC(=O)[C@H](CCCCN)NC(C)=O)C(=O)N[C@@H](CCC(N)=O)C(=O)N[C@@H](Cc1ccc(O)cc1)C(=O)N[C@H](C(=O)N[C@@H](Cc1ccc(O)cc1)C(=O)N[C@@H](Cc1c[nH]cn1)C(=O)N[C@H](C(=O)N[C@@H](CC(=O)O)C(N)=O)C(C)C)[C@@H](C)O [P0] (Ac-KGSFSIQYTYHVD-NH2)
- Degradation in solution [1]: No appreciable, if any; also recorded: No degradation
- Optimum pH range for hydrogelation ([2]; P0): 7–9
- Hydrogel formation on pH adjustment ([2]; P0 in H2O at pH 8.0, chloride salt 1.0 mM and trifluoroacetate salt 0.5 mM): soft gel immediately formed
- Gel appearance over time (clear or cloudy / precipitate) ([2]; visual inspection, 2.0 mM in D2O, pD 8.0, ambient temperature, 24 h to 6 days): usually yields a clear gel upon preparation but occasionally turns cloudy
- Fibril axis ratio [3]: 2.8
- Fibril cross-sectional area [3]: 14.9 nm^2
- Fibril minor radius (minor semiaxis) [3]: 1.3 nm
